Experiments:
Format in all cases: cell-based
[1] = test system: Mouse embryonic fibroblasts (OG2-MEF; hemizygous for the Oct4-GFP transgene); assay: Reprogramming of mouse embryonic fibroblasts, Oct4-GFP colony count
Procedure: FIG. 1 is a process of screening mouse cell reprogramming factors using analog library screening of novel trans-3-indoleacrylic acid-based compounds. In order to screen low-molecular-weight compounds that promote the production of reprogrammed stem cells, mouse embryonic stem cells (OG2-MEF; hemizygous for the Oct4-GFP transgene) were transduced with reprogramming viruses (Oct4, Sox2, Klf4, and c-Myc). After 5 days, the cells were seeded on gelatin-coated plates and then cultured in mouse embryonic stem cell culture media containing each of low-molecular-weight compounds until colonies having a morphology similar to that of mouse embryonic stem cells were formed. After 15 days, the number of colonies expressing endogenous Oct4 GFP fluorescence was measured, and compounds that increased the efficiency of reprogramming compared to that of a control group were selected. […] Oct4 (O), Sox2 (S), Klf4 (K), and cMyc (M). FIG. 1B is a graph showing the increase in efficiency of reprogramming by RSC-133 and ID-558 among screened compounds. The values shown on the graph are mean values. The data are expressed as mean±SD (n=3).
The OSKM reprogramming factor virus was produced according to the method of Example 3. […] At 15 days after the transfection, the number of either colonies showing AP activity or colonies expressing endogenous Oct4 GFP fluorescence was measured to determine the efficiency of reprogramming.
To discover low-molecular-weight compounds that are involved in the reprogramming process, analog library screening of novel trans-3-indoleacrylic acid-based compounds was performed in mouse cells. Mouse embryonic fibroblasts (OG2-MEF: hemizygous for the Oct4-GFP transgene) were transfected with reprogramming viruses of Oct4, Sox2, Klf4 and c-Myc (OSKM), and after 5 days, the cells were seeded on gelatin-coated 12-well plates and incubated with mouse embryonic stem cell culture medium containing each of low-molecular-weight compounds until colonies having a morphology similar to that mouse stem cells were formed so that endogenous Oct4 GFP fluorescence was expressed (FIG. 1A). […]

[2] = test system: human skin fibroblasts (hFFs); assay: Reprogramming of human skin fibroblasts, AP-positive colony count
Procedure: In order to screen low-molecular-weight compounds that promote the production of reprogrammed stem cells, human fibroblasts were transduced with reprogramming viruses (Oct4, Sox2, Klf4, and c-Myc). After 5 days, the cells were seeded on Matrigel-coated plates, and then cultured in MEF-conditioned medium (CM) containing each of low-molecular-weight compounds until colonies having a morphology similar to that of human embryonic stem cells were formed. After 15 days, alkaline phosphatase (AP) activity was measured, and compounds that increased the efficiency of reprogramming compared to that of a control group were selected. […] The values shown on the graph are mean values. The data are expressed as mean±SD (n=3).
For production of iPSC, human skin fibroblasts (hFFs) and mouse embryonic fibroblasts (MEFs) were seeded on gelatin-coated 6-well plates at a concentration of 1×10^5 cells per well at one day before transfection and were transfected with virus in the presence of polybrene (8 μg/ml). At 5 days after the transfection, hFFs or MEFs were collected by trypsin treatment and seeded again on Matrigel-coated 6-well plates at a concentration of 5 to 6×10^4 cells per well in order to perform experiments in feeder-free conditions. The medium was replaced with MEF-CM medium containing 10 ng/ml of bFGF. MEF-CM was prepared as γ-irradiated MEF according to a known method (Xu C. Nat Biotechnol 19, 971-974), and […] bFGF was added to MEF-CM. The medium was replaced at 2-day intervals. At 20 days after the transfection, hESC-like colonies were collected and transferred to 12-well plates having MEFs as feeder cells, and then continuously cultured using the hESC culture method described in Example 2.
The OSKM reprogramming factor virus was produced according to the method of Example 3. In order to screen low-molecular-weight compounds that increase the efficiency of reprogramming, hFFs and mouse embryonic fibroblasts (OG2-MEF; hemizygous for the Oct4-GFP transgene) were seeded on gelatin-coated 6-well plates at a concentration of 1×10^5 cells at one day before transfection, and then transfected with virus in the presence of polybrene (8 μg/ml). At 5 days after the transfection, hFFs or MEFs were collected by trypsin treatment and seeded again on Matrigel- or gelatin-coated 12-well plates at a concentration of 3.5×10^4 cells per well in order to perform experiments under feeder-free conditions. The medium was replaced with 10 ng/ml bFGF-containing MEF-CM or mouse embryonic stem cell culture medium, and then the prepared low-molecular-weight compounds that are trans-3-indoleacrylic based compounds were added at various concentrations. The culture medium containing each of the low-molecular-weight compounds was replaced at 2-day intervals. At 15 days after the transfection, the number of either colonies showing AP activity or colonies expressing endogenous Oct4 GFP fluorescence was measured to determine the efficiency of reprogramming.
ALP staining was performed using a commercial ALP kit (Sigma) according to the manufacturer's instruction. Images of ALP-positive cells were recorded using HP Scanjet G4010. In addition, bight field images were obtained using an Olympus microscope (IX51, Olympus, Japan).
To discover low-molecular-weight compounds that involved in the reprogramming of human somatic cells, reprogramming regulators of human skin fibroblasts were investigated by analog library screening of thirty selected novel trans-3-indoleacrylic acid-based compounds. Human skin fibroblasts were transfected with OSKM reprogramming virus, and after 5 days, the cells were seeded on Matrigel-coated 12-well plates and incubated in MEF-conditioned medium (CM) containing each of the low-molecular-weight compounds until colonies having a morphology similar to that of human embryonic stem cells were formed.

[3] = test system: human skin fibroblasts; assay: MTT cytotoxicity assay; details: concentration up to 50 μM, 72 hours after treatment (FIG. 9)
Procedure: FIG. 9 is a graph showing the results of analyzing the effect of RSC-133 on the cytotoxicity of human skin fibroblasts. At 72 hours after treatment with various concentrations of RSC-133, cytotoxicity was measured by MTT (3-(4,5-dimethylthiazol-2-yl)-2,5-diphenyltetrazolium bromide (yellow tetrazole) assays. The values shown on the graph are mean values. The data are expressed as mean±SD (n=3).

[4] = test system: human skin fibroblasts (hFFs); assay: Reprogramming of human skin fibroblasts, AP-positive colony count; remark: listed apart in the source

SMILES: NC(=O)c1cccc(NC(=O)/C=C/c2c[nH]c3ccccc23)c1 [RSC-133, 3-[3-(1H-indol-3-yl)-acrylamido]-benzamide]
- efficiency of reprogramming (number of colonies expressing endogenous Oct4 GFP fluorescence) ([1]; OG2-MEF transfected with OSKM, after 15 days, compared to control group): showed the effect of increasing the efficiency of reprogramming
- efficiency of reprogramming compared to reported compounds ([1]; vs 5-Azacytidine, BIX-01294, VPA or increased MOI of OSKM virus (FIG. 2a)): greatly increased the efficiency of reprogramming
- concentration that increases the efficiency of reprogramming to the highest level ([2]; 0, 0.1, 1, 5, 10 and 20 μM tested): 10 µM
- efficiency of reprogramming at 20 μM versus 10 μM ([2]; 20 μM (FIG. 8)): did not increase
- efficiency of reprogramming, hypoxic conditions ([2]; 5% O2, compared to control group (FIG. 4)): showed the effect of increasing the efficiency of reprogramming of human skin fibroblasts
- efficiency of reprogramming, normal conditions ([2]; 21% O2, compared to control group (FIG. 4)): showed the effect of increasing the efficiency of reprogramming of human skin fibroblasts
- efficiency of reprogramming (alkaline phosphatase activity) ([2]; OSKM, MEF-CM, after 15 days, compared to control group (FIG. 3)): increased the efficiency of reprogramming of human skin fibroblasts
- effect on the promotion of reprogramming of human cells relative to AZA, VPA, TSA and SB431542 ([2]; RSC 133 10 μM, AP-positive colonies, OSKM (FIG. 2b)): 1.5-3.3 times
- concentration dependence of the increase in efficiency of reprogramming ([2]; treatment concentration of up to 10 μM, AP-positive colonies (FIG. 8)): concentration-dependent manner
- efficiency of reprogramming, continuous treatment ([2]; treatment throughout the reprogramming process (condition 1 in FIG. 10)): increased to the highest level
- cytotoxicity (MTT) [3]: did not induce cytotoxicity
- substitution for reprogramming factor c-Myc, compound alone ([4]; RSC-133 alone, AP-positive colonies (FIG. 5)): did not show the substituting effect
- substitution for reprogramming factor c-Myc, in combination with sodium butyrate ([4]; RSC-133 in combination with sodium butyrate (NaB), compared to control group (FIG. 5)): substituted for c-Myc factor to increase the efficiency of reprogramming
- efficiency of reprogramming, treatment in the initial stage ([4]; initial stage (including 5 days after viral infection), compared to other periods of equal length (FIG. 10)): significantly increased

Source: patent US9587225B2, “Low-molecular-compound for improving production, maintenance and proliferation of pluripotent stem cells, composition comprising the same, and culture method” (KOREA RESEARCH INSTITUTE OF BIOSCIENCE AND BIOTECHNOLOGY, priority 2012, dated 2017)
